Reference: patent US20250326739A1, “CD38 MODULATORS AND USES THEREOF” (Aeovian Pharmaceuticals, Inc., priority 2022, published 2025)
pIC50: −log10 of the molar value. Where a name gives a salt, the structure may show the parent alone.

Assays:
mouse CD38 = mouse CD38 (Mus musculus (Mouse), UniProt P56528); assay: NAD+ cyclase activity assay with mouse recombinant CD38 protein; format: biochemical; details: 0.6 nM mouse CD38, 15.8 μM e-NAD substrate, fluorescence read-out
Procedure: (§1) Example 5: NAD^+ Cydase Activity Assay with Human or Mouse Recombinant CD38 Protein
(§2) The following assay was used to determine the ability of compounds of the invention to inhibit the hydrolysis of NAD^+ by the human or mouse enzyme, CD38.
(§3) Reaction buffer: 40 mM HEPES/NaOH pH 7.5, 250 mM sucrose, 0.01% Tween
(§4) Final concentrations: 0.6 nM mouse CD38 (4947-AC, Bio-Techne GmbH) 1.9 nM human CD38 (AVI2404, Bio-Techne GmbH)
(§5) Substrate: 15.8 μM Nicotinamide 1,N6-ethenoadenine dinucleotide (E-NAD)
(§6) Read-out: Fluorescence intensity (extinction 300 nm/emission 410 nm)
(§7) Required reaction buffer, required CD38 concentration in reaction buffer and required e-NAD concentration in reaction buffer were prepared. Thereafter, 8 μL of CD38 in reaction buffer were added to High Control and compound concentration wells in 384 well plate (Corning #4514, 384 well, nonbinding surface, low volume, round bottom) and 8 μL of reaction buffer to Low Control. Compound dilutions were transferred via pintool technology that transfers 42.5 nL compound dilutions (12-point dose-response with factor three dilutions in 100% DMSO) well-to-well. Plate was subsequently shaken for 15 s at 1450 rpm and sealed for incubation for 30 min at room temperature. Thereafter, 2 μL of e-NAD in reaction buffer were added with Integra Voyager. After shaking for 15 s at 1450 rpm, plate was sealed, and assay signal was measured continuously with PHERAstar® fluorescence intensity module (extinction 300 nm/emission 410 nm).
(§8) Dose-response curves were constructed using twelve-point factor three dilutions in triplicates per plate. High control (full enzyme activity) was set to assay signal of CD38 and e-NAD in presence of vehicle (DMSO) and Low control (full enzyme inhibition) was set to assay signal of e-NAD and vehicle (DMSO) in absence of CD38. For data analysis, fluorescent signal of traces corresponding to each compound concentration and High and Low control was monitored over time. Each run, High Control (full enzyme activity) was fitted to Linear equation via GraphPad Prism to determine CD38 activity from the slope and determine the time interval of linear phase of reaction to account for minor fluctuations. Thereafter, slopes of all compound concentrations were determined via fitting to same linear equation (GraphPad Prism) over the same time interval as determined for High control. Percentage inhibition was calculated via normalization to High and Low Control via the equation: %−inhibition=100*(1−((Sample−Low control)/(High control−Low control))) Half maximal inhibitory concentration (IC50) values are yielded from the inflection point of the corresponding curve by fitting of resulting percentage inhibition values to standard equation (4 Parameter Logistic Model or Sigmoidal Dose-Response Model) via Excel Fit. Unless otherwise stated, fitting of curves was fixed to 100%-inhibition and unlocked for 0%-inhibition.

human CD38 = human CD38 (Homo sapiens (Human), UniProt P28907); assay: NAD+ cyclase activity assay with human recombinant CD38 protein; format: biochemical; details: 1.9 nM human CD38, 15.8 μM e-NAD substrate, fluorescence read-out
Procedure: as §1, §2, §3, §4, §5, §6, §7, §8

mouse CD38, sequence (P56528 whole entry): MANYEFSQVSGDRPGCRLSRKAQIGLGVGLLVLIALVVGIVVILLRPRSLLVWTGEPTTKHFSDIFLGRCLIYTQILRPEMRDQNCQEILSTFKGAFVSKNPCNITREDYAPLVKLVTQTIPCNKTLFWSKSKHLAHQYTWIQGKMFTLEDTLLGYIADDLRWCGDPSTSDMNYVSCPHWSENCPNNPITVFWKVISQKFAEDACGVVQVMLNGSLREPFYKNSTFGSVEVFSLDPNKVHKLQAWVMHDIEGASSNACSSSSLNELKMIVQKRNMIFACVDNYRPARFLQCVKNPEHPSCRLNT
human CD38, sequence (P28907 whole entry): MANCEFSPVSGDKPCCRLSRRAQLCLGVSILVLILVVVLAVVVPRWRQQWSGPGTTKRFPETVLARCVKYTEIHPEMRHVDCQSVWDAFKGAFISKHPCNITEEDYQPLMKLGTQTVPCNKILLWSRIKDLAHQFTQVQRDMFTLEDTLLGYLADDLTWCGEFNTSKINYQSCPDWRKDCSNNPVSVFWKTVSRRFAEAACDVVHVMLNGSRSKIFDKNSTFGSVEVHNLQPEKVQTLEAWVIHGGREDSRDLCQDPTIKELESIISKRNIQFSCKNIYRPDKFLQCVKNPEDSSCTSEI

Row | Compound | pIC50 (mouse CD38) | pIC50 (human CD38)
1 | COc1cc(C(=O)NC2CCN(S(C)(=O)=O)CC2)nc(-n2ccnc2)c1 [Compound 15A, 6-(1H-Imidazol-1-yl)-4-methoxy-N-(1-(methylsulfonyl)piperidin-4-yl)picolinamide] | 8.00 to 9.00 | 7.00 to 7.52
2 | Cc1cc(C(=O)NC2CCN(S(=O)(=O)C3CCOC3)CC2)nc(-n2ccnc2)c1 (centres unmarked) [Compound 72A, 6-(1H-Imidazol-1-yl)-4-methyl-N-(1-((tetrahydrofuran-3-yl)sulfonyl)piperidin-4-yl)picolinamide] | > 9.00 | > 7.52
3 | Cc1cc(C(=O)N[C@H]2CCCN(C)C2=O)nc(-n2ccnc2)c1 [Compound 85A, (S)-6-(1H-Imidazol-1-yl)-4-methyl-N-(1-methyl-2-oxopiperidin-3-yl)picolinamide] | 7.00 to 8.00 | 6.00 to 7.00
4 | Cc1cc(C(=O)NC2CCN(C(=O)N(C)C)CC2)nc(-n2ccnc2)c1 [Compound 21A, N-(1-(Dimethylcarbamoyl)piperidin-4-yl)-6-(1H-imidazol-1-yl)-4-methylpicolinamide] | 8.00 to 9.00 | 7.00 to 7.52
5 | Cc1cc(C(=O)NC2CCNCC2)nc(-n2ccnc2)c1 [Compound 11A, 6-(1H-Imidazol-1-yl)-4-methyl-N-(piperidin-4-yl)picolinamide] | 8.00 to 9.00 | < 6.00
6 | Cc1cc(C(=O)NC2CCOC(C)C2)nc(-n2ccnc2)c1 (centres unmarked) [Compound 30A, 6-(1H-Imidazol-1-yl)-4-methyl-N-(2-methyltetrahydro-2H-pyran-4-yl)picolinamide] | 8.00 to 9.00 | 7.00 to 7.52
7 | Cc1cc(C(=O)N[C@H]2CCC(C)(C)OC2)nc(-n2ccnc2)c1 [Compound 65A, (S)—N-(6,6-Dimethyltetrahydro-2H-pyran-3-yl)-6-(1H-imidazol-1-yl)-4-methylpicolinamide] | 8.00 to 9.00 | 6.00 to 7.00
8 | COCCS(=O)(=O)N1CCC(NC(=O)c2cc(C)cc(-n3ccnc3)n2)CC1 [Compound 4A, 6-(1H-Imidazol-1-yl)-N-(1-((2-methoxyethyl)sulfonyl)piperidin-4-yl)-4-methylpicolinamide] | 8.00 to 9.00 | > 7.52
9 | Cc1cc(C(=O)N[C@@H]2CCN(S(C)(=O)=O)C2)nc(-n2ccnc2)c1 [Compound 53A, (R)-6-(1H-Imidazol-1-yl)-4-methyl-N-(1-(methylsulfonyl)pyrrolidin-3-yl)picolinamide] | 8.00 to 9.00 | 6.00 to 7.00
10 | Cc1cc(C(=O)N[C@@H]2CCCN(S(C)(=O)=O)C2)nc(-n2ccnc2)c1 [Compound 54A, (R)-6-(1H-Imidazol-1-yl)-4-methyl-N-(1-(methylsulfonyl)piperidin-3-yl)picolinamide] | 8.00 to 9.00 | 7.00 to 7.52
11 | Cc1cc(C(=O)NC2CCOCC2(C)C)nc(-n2ccnc2)c1 (centres unmarked) [Compound 27A, N-(3,3-Dimethyltetrahydro-2H-pyran-4-yl)-6-(1H-imidazol-1-yl)-4-methylpicolinamide] | 7.00 to 8.00 | 6.00 to 7.00
12 | CS(=O)(=O)N1CCC(NC(=O)c2ccnc(-n3ccnc3)n2)CC1 [Compound 73A, 2-(1H-Imidazol-1-yl)-N-(1-(methylsulfonyl)piperidin-4-yl)pyrimidine-4-carboxamide] | 8.00 to 9.00 | > 7.52
13 | CS(=O)(=O)N1CCC(NC(=O)c2cc(C(F)(F)F)cc(-n3ccnc3)n2)CC1 [Compound 82A, 6-(1H-Imidazol-1-yl)-N-(1-(methylsulfonyl)piperidin-4-yl)-4-(trifluoromethyl)picolinamide] | 8.00 to 9.00 | > 7.52
14 | Cc1cc(C(=O)N[C@H]2CCCOC2)nc(-n2ccnc2)c1 [Compound 45A, (S)-6-(1H-Imidazol-1-yl)-4-methyl-N-(tetrahydro-2H-pyran-3-yl)picolinamide] | 8.00 to 9.00 | 6.00 to 7.00
15 | Cc1cc(C(=O)NC2CCS(=O)(=O)C2)nc(-n2ccnc2)c1 (centres unmarked) [Compound 23A, N-(1,1-Dioxidotetrahydrothiophen-3-yl)-6-(1H-imidazol-1-yl)-4-methylpicolinamide] | 8.00 to 9.00 | 7.00 to 7.52
16 | CNS(=O)(=O)N1CCC(NC(=O)c2cc(C)cc(-n3ccnc3)n2)CC1 [Compound 14A, 6-(1H-Imidazol-1-yl)-4-methyl-N-(1-(N-methylsulfamoyl)piperidin-4-yl)picolinamide] | 8.00 to 9.00 | 6.00 to 7.00
17 | Cc1cc(C(=O)NC2CC3CCC(C2)O3)nc(-n2ccnc2)c1 (centres unmarked) [Compound 28A, N-(8-Oxabicyclo[3.2.1]octan-3-yl)-6-(1H-imidazol-1-yl)-4-methylpicolinamide] | 8.00 to 9.00 | 6.00 to 7.00
18 | CCCS(=O)(=O)N1CCC(NC(=O)c2cc(C)cc(-n3ccnc3)n2)CC1 [Compound 6A, 6-(1H-Imidazol-1-yl)-4-methyl-N-(1-(propylsulfonyl)piperidin-4-yl)picolinamide] | 8.00 to 9.00 | > 7.52
19 | CCCC(=O)N1CCC(NC(=O)c2cc(C)cc(-n3ccnc3)n2)CC1 [Compound 13A, N-(1-Butyrylpiperidine-4-yl)-6-(1H-imidazol-1-yl)-4-methylpicolinamide] | 8.00 to 9.00 | 7.00 to 7.52
20 | Cc1cc(C(=O)N[C@H]2COCC(F)(F)C2)nc(-n2ccnc2)c1 [Compound 66A, (R)—N-(5,5-Difluorotetrahydro-2H-pyran-3-yl)-6-(1H-imidazol-1-yl)-4-methylpicolinamide] | > 9.00 | 7.00 to 7.52
21 | CS(=O)(=O)N1CCC(NC(=O)c2cc(C(F)(F)F)nc(-n3ccnc3)n2)CC1 [Compound 75A, 2-(1H-Imidazol-1-yl)-N-(1-(methylsulfonyl)piperidin-4-yl)-6-(trifluoromethyl)pyrimidine-4-carboxamide] | 8.00 to 9.00 | 7.00 to 7.52
22 | Cc1cc(C(=O)N[C@H]2CCCNC2)nc(-n2ccnc2)c1 [Compound 48A, (S)-6-(1H-Imidazol-1-yl)-4-methyl-N-(piperidin-3-yl)picolinamide dihydrochloride] | 7.00 to 8.00 | < 6.00
23 | O=C(N[C@@H]1CCS(=O)(=O)C1)c1ccnc(-n2ccnc2)n1 [Compound 74A, (R)—N-(1,1-Dioxidotetrahydrothiophen-3-yl)-2-(1H-imidazol-1-yl)pyrimidine-4-carboxamide] | 8.00 to 9.00 | > 7.52
24 | Cc1cc(C(=O)N[C@@H]2CCOC2)nc(-n2ccnc2)c1 [Compound 42A, (R)-6-(1H-Imidazol-1-yl)-4-methyl-N-(tetrahydrofuran-3-yl)picolinamide] | 8.00 to 9.00 | 7.00 to 7.52
25 | Cc1cc(C(=O)NC2COCC(F)(F)C2)nc(-n2ccnc2)c1 (centres unmarked) [Compound 26A, N-(5,5-Difluorotetrahydro-2H-pyran-3-yl)-6-(1H-imidazol-1-yl)-4-methylpicolinamide] | 8.00 to 9.00 | 7.00 to 7.52
26 | Cc1cc(C(=O)N[C@@H]2CCCNC2=O)nc(-n2ccnc2)c1 [Compound 58A, (R)-6-(1H-Imidazol-1-yl)-4-methyl-N-(2-oxopiperidin-3-yl)picolinamide] | 7.00 to 8.00 | < 6.00
27 | Cc1cc(C(=O)N[C@H]2CCOC2)nc(-n2ccnc2)c1 [Compound 38A, (S)-6-(1H-Imidazol-1-yl)-4-methyl-N-(tetrahydrofuran-3-yl)picolinamide] | 8.00 to 9.00 | 6.00 to 7.00
28 | Cc1cc(C(=O)N[C@@H]2CCS(=O)(=O)C2)nc(-n2ccnc2)c1 [Compound 86A, (R)—N-(1,1-Dioxidotetrahydrothiophen-3-yl)-6-(1H-imidazol-1-yl)-4-methylpicolinamide] | 8.00 to 9.00 | > 7.52
